Measurements as given in EP4660190A1, “PHARMACEUTICALLY ACCEPTABLE SALT OF COMPOUND AND PREPARATION METHOD THEREFOR” (Jiangsu Chia Tai Fenghai Pharmaceutical Co., Ltd., priority 2023, dated 2024).
Values joined by “and” are separate entries in the source; they are usually repeats but may differ in a detail not shown here. Equal entries are not always repeated. Where two headings read alike, the source gives them in different places. Marks after values point to notes of the source that are not given here.

What was measured:
[1] = Hygroscopicity test (Chinese Pharmacopoeia Section 9103); type: physicochemical; details: 25°C, 80% relative humidity, 24 hours
[2] = tested on: Middle cerebral artery occlusion (MCAO) models of SD rats; experiment: Rat MCAO model, 7 daily doses, TTC staining cerebral infarction; type: in vivo
Description: (§1) Middle cerebral artery occlusion (MCAO) models of SD rats were constructed using the suture occlusion method to evaluate the neuroprotective effect of the compound on neurons of rats after cerebral ischemia-reperfusion. […] The ECA was ligated. The ICA was temporarily occluded. Sutures were threaded at both the proximal end and the distal end of CCA. The distal end was securely ligated, and a loosely tied knot was placed at the proximal end. A small incision was made on the CCA between these two sutures. […] The threading was halted temporarily when reaching the artery clamp of ICA. The pre-ligation suture was further tightened. The artery clamp blocking the blood flow in the ICA was removed, allowing the suture occlusion to be advanced into the ICA until it entered the intracranial region. […] The insertion was stopped at the moment, and the time was recorded. The artery clamp on the CCA was removed and the incision was closed after no active bleeding was observed. The ischemic rats were placed at room temperature to keep their body temperature at 37°C, and anesthesia induction could be carried out 120min later. The suture was slowly and gradually withdrawn when the rats were maintained under anesthesia, so that the proximal end of the suture returned to the ECA, thereby initiating reperfusion of the middle cerebral artery. […] A single dose was administered immediately after reperfusion (within 10 minutes), followed by one dose per day for a total of 7 consecutive doses (including the first dose). Except for the initial administration, all subsequent doses were given between 4:00 PM and 7:00 PM each day. […] Animals were euthanized 7 days after ischemia reperfusion, and the brains were rapidly taken, frozen, and dissected for TTC staining. The normal tissues were rose-red after staining, and the infarcted tissues were white. The infarct size (%) percentage, calculated as the weight of infarcted tissues to the weight of the whole brain, is used to evaluate the degree of cerebral ischemic injury in rats. […] Table 12 Cerebral infarct size and cerebral infarction inhibition rate of experimental animals

[3] = tested on: Middle cerebral artery occlusion (MCAO) models of SD rats; experiment: Rat MCAO model, 7 daily doses, neurobehavioral scoring (Bederson, NSS); type: in vivo; parameters: scale not given here; details: for NSS: 60mg/kg
Description: as §1, with “animals (2) Neurobehavioral scoring: […] Table 13: Results of Neurobehavioral Scores in Animals” for “animals”

[4] = tested on: SOD1 G93A ALS mice; experiment: SOD1-G93A ALS mice, survival; type: in vivo; details: 40 mg/kg dose group
[5] = tested on: TDP-43-A315T transgenic mice of ALS model; experiment: TDP-43-A315T ALS mice, muscle tone test; type: in vivo; details: Mean±SEM
[6] = tested on: MPTP-induced Parkinson's disease model mice; experiment: MPTP-induced mouse Parkinson's disease model, pole test; type: in vivo, C57 mice; details: mean ± SD
[7] = tested on: MPTP-induced Parkinson's disease model mice; experiment: MPTP-induced mouse Parkinson's disease model, striatal dopamine (DOPA) detection; type: in vivo, C57 mice; details: striatum, four weeks, mean ± SD
[8] = for Total impurities: Table 4
[9] = tested on: MPTP-induced Parkinson's disease model mice; experiment: MPTP-induced mouse Parkinson's disease model, grip strength test; details: Before Modeling, mean ± SD
[10] = Pharmacokinetics of butylphthalide in rats (literature values); details: rat; calculated based on the literature value of AUC0-inf (p.o. 60 mg/kg vs i.v. 10 mg/kg)
[11] = 60mg/kg oral, 7 daily doses, 7 days after reperfusion, Mean±SD

## (Z)-3-(1-hydroxybutenyl)benzofuran-2-one tromethamine salt [Example 10]
[1]
  hygroscopicity: non-hygroscopic
  weight gain percentage: 0.0%
[2]; rat, in vivo
  Cerebral infarction inhibition rate (%): 26.236± 12.737% and 31.023± 11.150%
  Infarct Size (%): 14.717±2.541 % and 13.762±2.225 %
  Infarct area weight: 0.183 ± 0.036 g and 0.176 ± 0.030 g
[3]; rat, in vivo
  Bederson: 3.00± 0.00
[4]
  extension of survival: approximately 15 days
[5]; female mice, 20mg/kg, animal age 6 weeks
  Muscle Tone: 165.4 ± 7.815 g
[5]; female mice, 20mg/kg, animal age 8 weeks
  Muscle Tone: 190.2 ± 14.13 g
[5]; female mice, 20mg/kg, animal age 10 weeks
  Muscle Tone: 153.7 ± 8.355 g
[5]; female mice, 20mg/kg, animal age 12 weeks
  Muscle Tone: 159.4 ± 13.21 g
[5]; female mice, 20mg/kg, animal age 13 weeks
  Muscle Tone: 149.8 ± 4.815 g
[5]; female mice, 20mg/kg, animal age 14 weeks
  Muscle Tone: 150.9 ± 6.940 g
[5]; female mice, 20mg/kg, animal age 16 weeks
  Muscle Tone: 159.5 ± 7.125 g
[5]; female mice, 40mg/kg p.o., animal age 6 weeks
  Muscle Tone: 155.8 ± 3.677 g
[5]; female mice, 40mg/kg p.o., animal age 8 weeks
  Muscle Tone: 190.6 ± 10.24 g
[5]; female mice, 40mg/kg p.o., animal age 10 weeks
  Muscle Tone: 147.8 ± 7.822 g
[5]; female mice, 40mg/kg p.o., animal age 12 weeks
  Muscle Tone: 154.3 ± 6.584 g
[5]; female mice, 40mg/kg p.o., animal age 13 weeks
  Muscle Tone: 148.1 ± 4.851 g
[5]; female mice, 40mg/kg p.o., animal age 14 weeks
  Muscle Tone: 161.6 ± 2.816 g
[5]; female mice, 40mg/kg p.o., animal age 16 weeks
  Muscle Tone: 155.2 ± 3.339 g
[5]; male mice, 40mg/kg p.o., animal age 6 weeks
  Muscle Tone: 155.4 ± 6.495 g
[5]; male mice, 40mg/kg p.o., animal age 8 weeks
  Muscle Tone: 170.9 ± 6.777 g
[5]; male mice, 40mg/kg p.o., animal age 10 weeks
  Muscle Tone: 155.6 ± 8.359 g
[5]; male mice, 40mg/kg p.o., animal age 12 weeks
  Muscle Tone: 123.1 ± 18.21 g
[5]; male mice, 40mg/kg p.o., animal age 13 weeks
  Muscle Tone: 120.8 ± 12.91 g
[5]; male mice, 40mg/kg p.o., animal age 14 weeks
  Muscle Tone: 89.72 ± 19.04 g
[5]; male mice, 60mg/kg p.o., animal age 6 weeks
  Muscle Tone: 175.7 ± 7.244 g
[5]; male mice, 60mg/kg p.o., animal age 8 weeks
  Muscle Tone: 177.0 ± 5.555 g
[5]; male mice, 60mg/kg p.o., animal age 10 weeks
  Muscle Tone: 155.93 ± 4.345 g
[5]; male mice, 60mg/kg p.o., animal age 12 weeks
  Muscle Tone: 136.8 ± 16.00 g
[5]; male mice, 60mg/kg p.o., animal age 13 weeks
  Muscle Tone: 149.8 ± 3.710 g
[5]; male mice, 60mg/kg p.o., animal age 14 weeks
  Muscle Tone: 149.8 ± 2.045 g
[6]; high dose 20 mg/kg daily, four weeks, Study Endpoint, listed as Tromethamine salt from Example 10, 20 mg/kg
  Pole test results: 8.83 ± 1.77 s
[6]; high dose 20 mg/kg daily, four weeks, Study Endpoint, listed as tromethamine salt from Example 10, 20 mg/kg
  Pole test results: 8.83 ± 1.77 s
[6]; high dose 20 mg/kg group, Before Modeling
  Pole test results: 9.51 ± 1.66 s
[6]; low dose 5 mg/kg daily, four weeks, Study Endpoint, listed as Tromethamine salt from Example 10, 5 mg/kg
  Pole test results: 9.67 ± 1.48 s
[6]; low dose 5 mg/kg daily, four weeks, Study Endpoint, listed as tromethamine salt from Example 10, 5 mg/kg
  Pole test results: 9.67 ± 1.48 s
[6]; low dose 5 mg/kg group, Before Modeling
  Pole test results: 9.40 ± 1.51 s
[7]; high dose 20 mg/kg daily, listed as Tromethamine salt from Example 10, 20 mg/kg
  DOPA: 2731.07 ± 868.18 ng/g
[7]; high dose 20 mg/kg daily, listed as tromethamine salt from Example 10, 20 mg/kg
  DOPA: 2731.07 ± 868.18 ng/g
[7]; low dose 5 mg/kg daily, listed as Tromethamine salt from Example 10, 5 mg/kg
  DOPA: 837.82±372.19^& ng/g
[7]; low dose 5 mg/kg daily, listed as tromethamine salt from Example 10, 5 mg/kg
  DOPA: 837.82 ± 372.19 ng/g
[8]; 0 h
  Total impurities: 0.08
[8]; High Humidity 75%, 10 d
  Total impurities: 0.04
[8]; High Humidity 92.5%, 10 d
  Total impurities: 0.04
[8]; High temperature 60°C, 10 d
  Total impurities: 0.03
[8]; Light (packaged), 10 d
  Total impurities: 0.04
[8]; Light (unwrapped), 10 d
  Total impurities: 0.03
[8]; high temperature (60°C), light (unwrapped, packaged), high humidity (92.5%, 75%)
  chemical stability: good chemical stability
[9]; high dose 20 mg/kg group
  Grip Strength Test: 278.44 ± 8.96 g
[9]; low dose 5 mg/kg group
  Grip Strength Test: 276.97 ± 6.40 g

## CCCCC1OC(=O)c2ccccc21 (centres unmarked) [Butylphthalide, butylphthalide, reference compound]
[2]; [11]
  Cerebral infarction inhibition rate (%): 28.624±14.597%
  Infarct Size (%): 14.241±2.912%
  Infarct area weight: 0.175 ± 0.032 g
[3]; 60mg/kg group, score after surgery, Mean±SD
  Bederson: 3.00± 0.00
[3]; D0 (one day before surgery), Mean±SD
  NSS: 0.00± 0.00
[3]; D2 (1 day after surgery), Mean±SD
  NSS: 6.71± 1.36
[3]; D4 (3 days after surgery), Mean±SD
  NSS: 5.75±0.92
[3]; D6 (5 days after surgery), Mean±SD
  NSS: 4.88± 1.73
[3]; D8 (7 days after surgery), Mean±SD
  NSS: 4.04±1.20
[10]
  F: 16.6* %
